According to PMC12295440, “C-Terminal Analogues of Camostat Retain TMPRSS2 Protease Inhibition: New Synthetic Directions for Antiviral Repurposing of Guanidinium-Based Drugs in Respiratory Infections” (International Journal of Molecular Sciences, 2025):
Values joined by “and” are separate entries in the source; they are usually repeats but may differ in a detail not shown here. Equal entries are not always repeated.

Target: T1, TMPRSS2 (Homo sapiens, UniProt O15393)
T1 construct: purchased BPS Bioscience 780837
Assay: TMPRSS2 fluorogenic protease inhibition assay (BPS Bioscience kit)
Type: biochemical
Conditions: for IC50: fluorogenic substrate, 30 min pre-incubation at room temperature, average of two independent experiments in duplicate (N = 4), read-out: IC50, in vitro TMPRSS2 enzyme inhibition

T1 sequence (O15393 whole entry): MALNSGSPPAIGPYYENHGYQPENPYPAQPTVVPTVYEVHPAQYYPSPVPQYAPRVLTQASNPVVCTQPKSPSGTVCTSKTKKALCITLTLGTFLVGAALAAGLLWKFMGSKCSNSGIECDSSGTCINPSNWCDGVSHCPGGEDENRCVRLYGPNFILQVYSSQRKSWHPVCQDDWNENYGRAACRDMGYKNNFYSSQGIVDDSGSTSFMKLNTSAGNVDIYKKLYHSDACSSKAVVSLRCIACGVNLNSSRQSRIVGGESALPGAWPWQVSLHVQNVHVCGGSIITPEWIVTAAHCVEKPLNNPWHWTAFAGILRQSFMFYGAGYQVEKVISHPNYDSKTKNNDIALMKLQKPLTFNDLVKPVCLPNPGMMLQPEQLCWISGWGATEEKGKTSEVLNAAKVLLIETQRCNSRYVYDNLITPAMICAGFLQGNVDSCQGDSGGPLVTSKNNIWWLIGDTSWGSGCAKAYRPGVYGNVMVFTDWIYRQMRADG

| IC50 | TMPRSS2 inhibition (in words) (fluorogenic assay, concentrations 0.007-0.1054 µM) | SMILES |
| --- | --- | --- |
| 1.79 nM and 1.8 nM | – | N=C(N)Nc1ccc(C(=O)Oc2ccc(CC(=O)OCC(=O)N3CCOCC3)cc2)cc1 [Compound 1d] |
| – | fell out of the range of the assay | CN(C)C(=O)CNC(=O)Cc1ccc(NC(=O)c2ccc(NC(=N)N)cc2)cc1 [Compound 1e] |
| 1.27 nM and 1.3 nM | – | CNC(=O)COC(=O)Cc1ccc(OC(=O)c2ccc(NC(=N)N)cc2)cc1 [Compound 1c] |
